# From ChEMBL document CHEMBL1135093, “Phthalazine PDE4 inhibitors. Part 3: the synthesis and in vitro evaluation of derivatives with a hydrogen bond acceptor” (Bioorg Med Chem Lett, 2002)
# What was measured:
# Assay type in all cases: protein assay
# [1] = target: T1, Phosphodiesterase 4 (Homo sapiens, UniProt P27815+Q08499+Q07343+Q08493); test: Affinity for rolipram binding site (RBS) of human neutrophil phosphodiesterase type IV (PDE4)
# [2] = target: T1, Phosphodiesterase 4; test: Inhibition of human neutrophil phosphodiesterase type IV (PDE4)
# [3] = target: T1, Phosphodiesterase 4; test: Selectivity for rolipram binding site over phosphodiesterase 4
# [4] = target: T1, Phosphodiesterase 4; test: Inhibition of human phosphodiesterase type IV (PDE4) at 10e-7 M
# [5] = target: T1, Phosphodiesterase 4; test: Inhibition of rolipram binding to phosphodiesterase type IV (PDE4) at 10e-6 M
# [6] = target: T1, Phosphodiesterase 4; test: Inhibition of rolipram binding to phosphodiesterase type IV (PDE4)
# [7] = target: T1, Phosphodiesterase 4; test: Inhibition of rolipram binding to phosphodiesterase type IV (PDE4) at 10e-7 M
SMILES,Ki [1],IC50 [2],Ratio [3],inhibition [4],Binding [5],Binding [6],Binding [7]
COc1ccc2c(c1OC1CCCC1)CN(C(C)=O)N=C2Cc1c(Cl)cncc1Cl,128 nM,30 nM,4.3,–,–,–,–
COc1ccc2c(Cc3c(Cl)cncc3Cl)nncc2c1,–,–,–,0%,–,42%,–
COc1ccc2c(c1)CN(C(=O)Cc1ccccc1)N=C2Cc1c(Cl)cncc1Cl,–,12 nM,> 20,–,–,–,36%
CCOC(=O)C(=O)N1Cc2cc(OC)ccc2C(Cc2c(Cl)cncc2Cl)=N1,212 nM,113 nM,1.9,–,–,–,–
COc1ccc2c(c1)CN(C(=O)NO)N=C2Cc1c(Cl)cncc1Cl,208 nM,85 nM,2.4,–,–,–,–
COc1ccc2c(c1)CN(C(=O)C(C)C)N=C2Cc1c(Cl)cncc1Cl,498 nM,25 nM,19.9,–,–,–,–
COC(=O)N1Cc2cc(OC)ccc2C(Cc2c(Cl)cncc2Cl)=N1,199 nM,72 nM,2.8,–,–,–,–
COc1ccc2c(c1)CN(C=O)N=C2Cc1c(Cl)cncc1Cl,138 nM,–,–,45%,–,–,–
CCC(=O)N1Cc2cc(OC)ccc2C(Cc2c(Cl)cncc2Cl)=N1,237 nM,28 nM,8.5,–,–,–,–
COc1ccc2c(c1)CN(S(C)(=O)=O)N=C2Cc1c(Cl)cncc1Cl,60 nM,21 nM,2.9,–,–,–,–
COc1ccc2c(c1)CN(C(C)=O)N=C2Cc1c(Cl)cncc1Cl,397 nM,51 nM,7.8,–,–,–,–
COc1ccc2c(c1)CN(C(N)=O)N=C2Cc1c(Cl)cncc1Cl,63 nM,36 nM,1.7,–,–,–,–

# The remaining lines, values ahead:
Ki [1],IC50 [2],Ratio [3],inhibition [4],Binding [5],Binding [6],Binding [7],SMILES
5 nM,2 nM,2.5,–,–,–,–,COc1ccc2c(c1OC1CCCC1)CN(S(C)(=O)=O)N=C2Cc1c(Cl)cncc1Cl
–,–,–,14%,13%,–,–,COc1ccc2c(c1)CNN=C2Cc1c(Cl)cncc1Cl
–,–,2.8,–,–,–,–,COc1ccc2c(Cc3c(Cl)cncc3Cl)nncc2c1OC1CCCC1
473 nM,–,–,35%,–,–,–,COc1ccc2c(c1)CN(C(=O)N(C)C)N=C2Cc1c(Cl)cncc1Cl
235 nM,131 nM,1.8,–,–,–,–,CNC(=O)N1Cc2cc(OC)ccc2C(Cc2c(Cl)cncc2Cl)=N1
–,30 nM,> 20,–,–,–,17%,COc1ccc2c(c1)CN(C(=O)c1ccccc1)N=C2Cc1c(Cl)cncc1Cl
